Source: patent publication US5110976A, “Insecticidal composition comprising more than one active ingredient” (priority 1985, dated 1992)

How the values were obtained:
Hyphantria cunea = experiment: Topical test on fall webworm (Table 8); assay type: in vivo, L7-L8 larvae; conditions: 24 h
Description: The active ingredients are dissolved in 2-ethoxyethanol and the solutions are applied in the form of 0.2 μl droplets onto the back of fall webworm (Hyphantria cunea) of L7 -L8 larvae stage. The treated worms are placed on strawberry leaves in Petri-dishes. The test is carried out by using 5 doses; 2 parallels and 10 insects for each dose.

T. confusum = experiment: Contact method, synergism between stereoisomers (Table 2); assay type: in vivo; conditions: Tribolium confusum, 24 h
Description: The stereoisomers are dissolved in a 1:2 mixture of mineral oil and acetone and filter paper discs (Whatman No. 1., diameter 9 cm) are impregnated with the corresponding dosage of the solution of the active ingredient. The acetone is allowed to evaporate and the insects are examined on filter paper discs placed into Petri-dishes. Three parallels are used for each dose and 15 animals are placed in each Petri-dish. Mortality rate is determined after 24 hours. The corrected mortality % data are calculated by means of the Abbot formula.
The test is carried out on T. confusum and the following results are obtained by the contact method for various active ingredient doses.
The test is carried out according to the method described in Example 20.

SMILES: CC1(C)[C@H](C=C(Cl)Cl)[C@H]1C(=O)O[C@H](C#N)c1cccc(Oc2ccccc2)c1 (relative stereo) [Ib]
- mortality at 0.023 µg/larva (Hyphantria cunea; 0.023 μg/larvae): 10%
- mortality at 0.047 µg/larva (Hyphantria cunea; 0.047 μg/larvae): 15%
- mortality at 0.094 µg/larva (Hyphantria cunea; 0.094 μg/larvae): 30%
- mortality at 0.188 µg/larva (Hyphantria cunea; 0.188 μg/larvae): 70%
- mortality at 0.375 µg/larva (Hyphantria cunea; 0.375 μg/larvae): 80%
- mortality at 110 µg/disc (T. confusum; 0.11 mg/disc): 90%
- mortality at 330 µg/disc (T. confusum; 0.33 mg/disc): 100%
- mortality at 1000 µg/disc (T. confusum; 1.00 mg/disc): 100%
- mortality at 3000 µg/disc (T. confusum; 3.00 mg/disc): 100%
